What all share (assay type): functional
The subject of one test is PC-3. The test is described as follows: Cytotoxicity against Homo sapiens (human) PC3 cells assessed as growth inhibition at 1 uM after 48 hr by SRB assay. The note with it: PC-3, 48 h, read-out: GI. (In general: Sulforhodamine B stains cellular protein and so reports cell mass.)
The next test has as its system OVCAR-5. Briefly: Cytotoxicity against Homo sapiens (human) OVCAR5 cells assessed as growth inhibition at 1 uM after 48 hr by SRB assay. Conditions: OVCAR-5, 48 h, read-out: GI.
For another test, the system named is COLO 205. Briefly: Cytotoxicity against Homo sapiens (human) COLO205 cells assessed as growth inhibition at 1uM after 48 hr by SRB assay. The note with it: COLO 205, 48 h, read-out: GI.
Another test has as its system MCF7. The test is described as follows: Cytotoxicity against Homo sapiens (human) MCF7 cells assessed as growth inhibition at 1 uM after 48 hr by SRB assay. Conditions: MCF7, 48 h, read-out: GI.

Where a name gives a salt, the structure may show the parent alone.

For the molecule `COc1cccc2c1C(=O)c1c(O)c3c(c(O)c1C2=O)C[C@@](O)(C(=O)CO)C[C@@H]3O[C@H]1C[C@H](N)[C@H](O)[C@H](C)O1` [DOXORUBICIN HYDROCHLORIDE], the inhibition of growth at 1 µM in the test with PC-3 stood at 66%; with OVCAR-5, 60%; in the test with COLO 205, 69%; with MCF7, 72%.

In the case of `CC(=O)O[C@H]1C(=O)[C@@]2(C)[C@H]([C@H](OC(=O)c3ccccc3)[C@]3(O)C[C@H](OC(=O)[C@H](O)[C@@H](NC(=O)c4ccccc4)c4ccccc4)C(C)=C1C3(C)C)[C@]1(OC(C)=O)CO[C@@H]1C[C@@H]2O` [PACLITAXEL], the inhibition of growth at 1 µM in the test on PC-3 worked out at 71%; in the test on OVCAR-5, 73%; in the test with COLO 205, 57%; in the test with MCF7 it was 80%.
